Measured values from ChEMBL document CHEMBL1949573, “Isoform-selective thiazolo[5,4-b]pyridine S1P1 agonists possessing acyclic amino carboxylate head-groups” (Bioorg Med Chem Lett, 2012).
≈ marks a conversion by molar mass, not a printed value. Calls of active or inactive are those of the source. The rule behind the calls is not given here.

What was measured:
[1] = target: T1, Sphingosine 1-phosphate receptor 3 (Homo sapiens, UniProt Q99500); assay: Agonist activity at human S1P3 receptor expressed in CHO cells coexpressing chimeric Gq/i5 G-protein assessed as Ca2+ release by FLIPR assay; type: functional, cell-based
T1 sequence (Q99500 whole entry): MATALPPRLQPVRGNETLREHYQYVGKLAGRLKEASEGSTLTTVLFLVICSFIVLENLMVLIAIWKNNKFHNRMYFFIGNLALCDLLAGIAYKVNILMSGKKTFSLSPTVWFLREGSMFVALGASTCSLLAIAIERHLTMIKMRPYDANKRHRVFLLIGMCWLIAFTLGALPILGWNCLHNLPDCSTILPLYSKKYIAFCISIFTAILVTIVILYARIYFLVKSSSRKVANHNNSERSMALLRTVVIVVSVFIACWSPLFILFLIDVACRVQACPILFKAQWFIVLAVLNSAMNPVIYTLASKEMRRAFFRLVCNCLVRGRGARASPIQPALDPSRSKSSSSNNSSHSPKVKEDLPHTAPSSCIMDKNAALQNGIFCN

[2] = target: T2, Sphingosine 1-phosphate receptor 1 (Homo sapiens, UniProt P21453); assay: Agonist activity at eGFP-tagged human S1P1 receptor expressed in U2OS cells assessed as receptor internalization after 1 hr by Hoechst dye-based microscopic analysis; type: functional, cell-based
T2 sequence (P21453 whole entry): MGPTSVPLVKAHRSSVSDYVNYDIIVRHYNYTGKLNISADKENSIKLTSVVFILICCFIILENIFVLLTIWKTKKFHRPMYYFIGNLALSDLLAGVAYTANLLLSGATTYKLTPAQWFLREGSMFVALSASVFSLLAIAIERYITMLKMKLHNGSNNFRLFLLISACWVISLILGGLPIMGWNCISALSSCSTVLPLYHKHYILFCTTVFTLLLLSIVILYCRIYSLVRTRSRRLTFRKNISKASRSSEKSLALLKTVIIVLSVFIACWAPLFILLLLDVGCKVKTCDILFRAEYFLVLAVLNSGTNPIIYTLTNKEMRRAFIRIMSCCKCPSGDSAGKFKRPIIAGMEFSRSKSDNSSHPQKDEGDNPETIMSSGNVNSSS

Rattus norvegicus [3] = assay: Immunomodulatory activity in Lewis rat assessed as peripheral lymphocyte reduction at 1 mg/kg, po after 24 hrs; type: functional; parameters: scale not given: the % may be the effect or the level left
[4] = target: T2, Sphingosine 1-phosphate receptor 1; assay: Agonist activity at eGFP-tagged human S1P1 receptor expressed in U2OS cells assessed as receptor internalization after 1 hr by Hoechst dye-based microscopic analysis relative to 1 uM 1-(4-(6-benzylbenzofuran-2-yl)-3-fluorobenzyl)azetidine-3-carboxylic acid; type: functional, cell-based
Plasma [5] = assay: Plasma concentration in Lewis rat at 1 mg/kg, po; type: ADME, organism-based; parameters: dose 1 mg/kg, route oral; details: in vivo
[6] = target: T1, Sphingosine 1-phosphate receptor 3; assay: Agonist activity at human S1P3 receptor expressed in CHO cells coexpressing chimeric Gq/i5 G-protein assessed as Ca2+ release by FLIPR assay relative to 0.2 uM S1P; type: functional, cell-based
[7] = Fraction unbound in rat plasma; type: ADME, cell-free
Rattus norvegicus [8] = assay: Immunomodulatory activity in Lewis rat assessed as peripheral lymphocyte reduction at 1 mg/kg, po after 24 hrs relative to control; type: functional; parameters: scale not given: the % may be the effect or the level left
[9] = Solubility of the compound in simulated intestinal fluid; type: physicochemical; details: simulated gi fluid
Cytochrome P450 3A4 [10] = target: T3, Cytochrome P450 3A4 (Homo sapiens, UniProt P08684); assay: Induction of CYP3A4; type: ADME
T3 sequence (P08684 whole entry): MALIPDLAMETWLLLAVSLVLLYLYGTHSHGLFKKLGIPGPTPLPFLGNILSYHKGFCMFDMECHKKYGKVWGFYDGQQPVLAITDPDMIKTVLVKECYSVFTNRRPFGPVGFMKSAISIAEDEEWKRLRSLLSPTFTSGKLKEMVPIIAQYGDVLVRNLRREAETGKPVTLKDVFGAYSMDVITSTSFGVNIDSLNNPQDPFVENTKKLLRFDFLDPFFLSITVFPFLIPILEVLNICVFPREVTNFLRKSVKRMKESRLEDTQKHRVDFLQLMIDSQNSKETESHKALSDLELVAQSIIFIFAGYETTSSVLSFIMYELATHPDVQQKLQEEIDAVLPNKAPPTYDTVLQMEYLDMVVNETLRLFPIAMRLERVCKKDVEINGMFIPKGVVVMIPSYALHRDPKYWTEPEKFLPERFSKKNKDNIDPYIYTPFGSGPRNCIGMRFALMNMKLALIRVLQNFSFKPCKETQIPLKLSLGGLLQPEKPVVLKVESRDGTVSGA

Cytochrome P450 2D6 [11] = target: T4, Cytochrome P450 2D6 (Homo sapiens, UniProt P10635); assay: Inhibition of CYP2D6; type: ADME
T4 sequence (P10635 whole entry): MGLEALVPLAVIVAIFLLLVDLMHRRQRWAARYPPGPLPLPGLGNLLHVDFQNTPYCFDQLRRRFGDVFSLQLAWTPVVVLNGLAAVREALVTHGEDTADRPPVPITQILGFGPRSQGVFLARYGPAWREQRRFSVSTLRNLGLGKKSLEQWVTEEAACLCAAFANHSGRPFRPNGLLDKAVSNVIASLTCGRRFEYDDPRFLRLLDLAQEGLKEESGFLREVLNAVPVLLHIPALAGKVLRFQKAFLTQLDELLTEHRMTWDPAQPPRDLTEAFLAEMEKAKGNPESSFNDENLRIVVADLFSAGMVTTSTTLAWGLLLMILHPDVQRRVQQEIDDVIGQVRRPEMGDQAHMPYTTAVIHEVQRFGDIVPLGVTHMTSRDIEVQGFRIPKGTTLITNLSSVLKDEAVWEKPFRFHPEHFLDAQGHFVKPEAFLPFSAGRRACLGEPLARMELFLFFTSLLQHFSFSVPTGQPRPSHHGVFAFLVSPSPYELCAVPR

Cytochrome P450 3A4 [12] = target: T3, Cytochrome P450 3A4; assay: Inhibition of CYP3A4; type: ADME
rat MDR1 [13] = assay: Permeability from apical to basolateral side in pig LLC-PK1 cells expressing rat MDR1; type: ADME, cell-based, Sus scrofa; details: read-out: permeability
Cytochrome P450 2D6 [14] = target: T4, Cytochrome P450 2D6; assay: Induction of CYP2D6; type: ADME
[15] = Solubility of the compound in 0.01 N HCl; type: physicochemical; details: buffer
Rattus norvegicus [16] = assay: Immunomodulatory activity in Lewis rat assessed as peripheral lymphocyte reduction at 0.1 mg/kg, po after 24 hrs relative to control; type: functional
[17] = target: T5, Voltage-gated inwardly rectifying potassium channel KCNH2 (Homo sapiens, UniProt Q12809); assay: Inhibition of human Erg by electrophysiology assay
T5 sequence (Q12809 whole entry): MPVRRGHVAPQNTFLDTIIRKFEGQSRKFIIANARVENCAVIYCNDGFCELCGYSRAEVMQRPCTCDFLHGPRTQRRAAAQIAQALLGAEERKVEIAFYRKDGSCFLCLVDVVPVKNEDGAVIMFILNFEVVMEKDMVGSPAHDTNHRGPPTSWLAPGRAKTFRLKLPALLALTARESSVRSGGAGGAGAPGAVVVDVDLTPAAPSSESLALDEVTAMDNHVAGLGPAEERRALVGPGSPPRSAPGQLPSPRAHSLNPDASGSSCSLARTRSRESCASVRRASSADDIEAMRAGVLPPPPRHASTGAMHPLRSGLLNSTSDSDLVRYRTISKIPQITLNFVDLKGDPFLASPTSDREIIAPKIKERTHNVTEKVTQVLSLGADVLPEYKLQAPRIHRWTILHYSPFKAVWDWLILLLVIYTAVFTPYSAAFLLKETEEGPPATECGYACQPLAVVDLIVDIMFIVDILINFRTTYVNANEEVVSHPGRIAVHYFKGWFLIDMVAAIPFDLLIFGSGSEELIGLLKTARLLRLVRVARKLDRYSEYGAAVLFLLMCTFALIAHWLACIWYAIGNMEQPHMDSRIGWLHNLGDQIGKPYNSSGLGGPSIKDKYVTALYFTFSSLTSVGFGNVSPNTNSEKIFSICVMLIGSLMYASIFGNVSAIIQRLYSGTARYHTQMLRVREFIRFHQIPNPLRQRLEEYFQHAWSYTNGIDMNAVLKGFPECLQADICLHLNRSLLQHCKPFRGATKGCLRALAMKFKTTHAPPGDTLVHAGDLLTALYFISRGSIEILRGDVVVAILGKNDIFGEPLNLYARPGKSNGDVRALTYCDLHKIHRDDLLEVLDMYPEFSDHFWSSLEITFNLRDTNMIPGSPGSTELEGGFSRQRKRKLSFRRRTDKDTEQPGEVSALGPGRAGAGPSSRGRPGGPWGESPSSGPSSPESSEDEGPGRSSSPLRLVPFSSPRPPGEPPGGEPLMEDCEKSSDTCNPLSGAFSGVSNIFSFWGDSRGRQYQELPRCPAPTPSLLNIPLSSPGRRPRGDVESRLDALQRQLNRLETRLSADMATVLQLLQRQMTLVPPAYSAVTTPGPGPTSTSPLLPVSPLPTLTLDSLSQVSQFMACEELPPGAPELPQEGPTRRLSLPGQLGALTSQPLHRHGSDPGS

[18] = Clearance in Sprague-Dawley rat at 1 mg/kg, iv and 3 mg/kg, po; type: ADME, organism-based; details: in vivo
Rattus norvegicus [19] = assay: Immunomodulatory activity in Lewis rat assessed as peripheral lymphocyte reduction at 0.3 mg/kg, po after 24 hrs relative to control; type: functional; parameters: scale not given: the % may be the effect or the level left
[20] = target: T5, Voltage-gated inwardly rectifying potassium channel KCNH2; assay: Binding affinity to human Erg
[21] = Mean residence time in Sprague-Dawley rat at 1 mg/kg, iv and 3 mg/kg, po; type: ADME, organism-based; details: in vivo
[22] = Fraction unbound in human plasma; type: ADME, cell-free
[23] = Solubility of the compound in phosphate buffer saline; type: physicochemical
[24] = Oral bioavailability in Sprague-Dawley rat at 3 mg/kg; type: ADME, organism-based; details: in vivo
[25] = Volume of distribution at steady state in Sprague-Dawley rat at 1 mg/kg, iv and 3 mg/kg, po; type: ADME, organism-based; details: in vivo, read-out: Vdss
rat MDR1 [26] = assay: Efflux ratio of permeability across pig LLC-PK1 cells expressing rat MDR1; type: ADME, cell-based, Sus scrofa
Plasma [27] = assay: Plasma concentration in Lewis rat at 0.1 mg/kg, po; type: ADME, organism-based; parameters: dose 0.1 mg/kg, route oral; details: in vivo

Row | SMILES | EC50 [1] [nM] | EC50 [2] [nM] | Activity (Rattus norvegicus [3]) [%] | Efficacy [4] [%] | Cp (Plasma [5]) [ng/mL] | also measured
1 | N[C@@H](CCc1ccc(-c2nc3ccc(C4(c5ccccc5)CC4)nc3s2)c(F)c1)C(=O)O | > 2500 | 0.5 | 22 | 115 | 2 | 
2 | N[C@@H](CC(=O)Nc1ccc(-c2nc3ccc(C4(c5ccccc5)CC4)nc3s2)c(F)c1)C(=O)O | > 2500 | 2 | 4 | 102 | 8 | 
3 | O=C(O)CCNCc1ccc(-c2nc3ccc(C4(c5ccccc5)CC4)nc3s2)c(F)c1 | > 25000 | 3 | 27 | 96 | 12 | 
4 | O=C(O)CCCCc1ccc(-c2nc3ccc(C4(c5ccccc5)CC4)nc3s2)c(F)c1 | > 25000 | 2410 |  | 103 |  | 
5 | O=C(O)CCCc1ccc(-c2nc3ccc(C4(c5ccccc5)CC4)nc3s2)c(F)c1 | > 25000 | 62 |  | 100 |  | 
6 | NCCCc1ccc(-c2nc3ccc(C4(c5ccccc5)CC4)nc3s2)c(F)c1 | > 2500 | 8 |  | 121 |  | 
7 | O=C(O)CCCNc1ccc(-c2nc3ccc(C4(c5ccccc5)CC4)nc3s2)c(F)c1 | 7120 | 36 |  | 113 |  | Efficacy [6]: 18%
8 | O=C(O)CCc1ccc(-c2nc3ccc(C4(c5ccccc5)CC4)nc3s2)c(F)c1 | > 25000 |  |  | 81 |  | 
9 | Nc1ccc(-c2nc3ccc(C4(c5ccccc5)CC4)nc3s2)c(F)c1 | > 25000 | 123 |  | 92 |  | 
10 | O=C(O)CNCc1ccc(-c2nc3ccc(C4(c5ccccc5)CC4)nc3s2)c(F)c1 | 1560 | 3 | 37 | 103 | 7 | Efficacy [6]: 17%
11 | N[C@H](CC(=O)Nc1ccc(-c2nc3ccc(C4(c5ccccc5)CC4)nc3s2)c(F)c1)C(=O)O | > 2500 | 2 | 0 | 110 | 4 | 
12 | NCc1ccc(-c2nc3ccc(C4(c5ccccc5)CC4)nc3s2)c(F)c1 | > 2500 | 15 |  | 113 |  | 
13 | C[C@](N)(CCc1ccc(-c2nc3ccc(C4(c5ccccc5)CC4)nc3s2)c(F)c1)C(=O)O | > 2500 | 3 | 15 | 93 | 6 | 
14 | O=C(O)c1ccc(-c2nc3ccc(C4(c5ccccc5)CC4)nc3s2)c(F)c1 | > 25000 | 2820 |  | 105 |  | 
15 | Fc1ccccc1-c1nc2ccc(C3(c4ccccc4)CC3)nc2s1 | > 25000 | 45 |  | 98 |  | 
16 | O=C(O)CNCCc1ccc(-c2nc3ccc(C4(c5ccccc5)CC4)nc3s2)c(F)c1 | 1440 | 2 | 15 | 102 | 1 | Efficacy [6]: 11%
17 | CN(CCC(=O)O)Cc1ccc(-c2nc3ccc(C4(c5ccccc5)CC4)nc3s2)c(F)c1 | > 25000 | 196 |  | 153 |  | 
18 | O=C(O)CCCNCc1ccc(-c2nc3ccc(C4(c5ccccc5)CC4)nc3s2)c(F)c1 | > 2500 | 179 |  | 128 |  | 
19 | NCCc1ccc(-c2nc3ccc(C4(c5ccccc5)CC4)nc3s2)c(F)c1 | > 25000 | 478 |  | 155 |  | 
20 | N[C@@H](CC(=O)O)C(=O)Nc1ccc(-c2nc3ccc(C4(c5ccccc5)CC4)nc3s2)c(F)c1 | 1130 | 0.5 | 0 | 134 | 1 | Efficacy [6]: 35%
21 | N[C@H](CC(=O)O)C(=O)Nc1ccc(-c2nc3ccc(C4(c5ccccc5)CC4)nc3s2)c(F)c1 | 834 |  | 0 | 100 | 2 | Efficacy [6]: 31%
22 | C[C@@](N)(CCc1ccc(-c2nc3ccc(C4(c5ccccc5)CC4)nc3s2)c(F)c1)C(=O)O | > 2500 | 0.2 | 71 | 114 | 10 | fraction unbound [7]: 0.039; Activity (Rattus norvegicus [8]): 56%; solubility [9]: 108 ng/mL (≈ 0.234 µM); Activity (Cytochrome P450 3A4 [10]): Not Active; inhibition (INH) (Cytochrome P450 2D6 [11]): Not Active; inhibition (INH) (Cytochrome P450 3A4 [12]): Not Active; Papp A→B (rat MDR1 [13]): 4 ×10⁻⁶ cm/s; Activity (Cytochrome P450 2D6 [14]): Not Active; solubility [15]: 6 ng/mL (≈ 0.013 µM); Activity (Rattus norvegicus [16]): inactive; INH [17]: > 10 µM; clearance [18]: 6 mL/min/kg; Activity (Rattus norvegicus [19]): 29%; Activity [20]: > 30 µM; MRT [21]: 11.4 h; fraction unbound [22]: 0.037; solubility [23]: < 1 ng/mL; bioavailability [24]: 16%; Vd [25]: 4.1 L/kg; efflux ratio (rat MDR1 [26]): 1.8
23 | O=C(O)C1CN(Cc2ccc(-c3nc4ccc(C5(c6ccccc6)CC5)nc4s3)c(F)c2)C1 |  |  | 71 |  | 116 | Cp (Plasma [27]): 10 ng/mL; solubility [9]: 65 ng/mL (≈ 0.141 µM); Papp A→B (rat MDR1 [13]): 14.6 ×10⁻⁶ cm/s; solubility [15]: 3 ng/mL (≈ 0.00653 µM); Activity (Rattus norvegicus [16]): 65%; solubility [23]: 7 ng/mL (≈ 0.0152 µM); Efficacy [6]: 26%
24 | N[C@H](CCc1ccc(-c2nc3ccc(C4(c5ccccc5)CC4)nc3s2)c(F)c1)C(=O)O | > 2500 | 0.3 | 55 | 128 | 5 | 
25 | O=C(O)CCNc1ccc(-c2nc3ccc(C4(c5ccccc5)CC4)nc3s2)c(F)c1 | > 2500 | 42 |  | 94 |  | 
26 | O=C(O)CCC(=O)Nc1ccc(-c2nc3ccc(C4(c5ccccc5)CC4)nc3s2)c(F)c1 | 5560 | 19 |  | 80 |  | Efficacy [6]: 39%
